From patent US8182815B2, “Fibroblast growth factor receptor-3 (FGFR-3) inhibitors and methods of treatment” (ImClone, LLC, priority 2008, dated 2012) come the findings set out here.

One test deals with RT4 tumor. The experiment in a line: RT4 xenograft, combination with cisplatin. Particulars: Antibody 1 40 mg/kg three times weekly, cisplatin MTD.
The next test deals with RT-112 tumor. The experiment in a line: RT112 xenograft, combination with cisplatin. The conditions noted are these: Antibody 1 40 mg/kg three times weekly, cisplatin MTD.
In a further test the test system is BFTC-905 tumor. The experiment in a line: BFTC905 xenograft, combination with cisplatin. The conditions noted are these: Antibody 1 40 mg/kg three times weekly, cisplatin MTD.
Test [1] has as its target T1, FGFR-3 (K650E) in OPM-2 cells (Homo sapiens, UniProt P22607, K650E).
T1 construct: endogenous in cells; host or cells: OPM-2
Briefly: FGFR-3 receptor degradation in OPM-2 cells (western blot). Type of test: cell-based. The conditions noted are these: 37° C., Antibody 1 30 ug/ml, FGF-1 30 ng/ml. As for the experimental part: OPM-2 is a cell line originally isolated from cancer cells of multiple myeloma. OPM-2 cells are known to express FGFR-3 receptors harboring a gain-of-function K650E point mutation. Quiesce the OPM-2 cells in low serum culture media (0.1% FBS) for overnight. The next day, divide these cells into 5 groups. Group 1 is lysed immediately, and the lysate is kept at −20° C. until the time of western blot analysis. This group is therefore designated as Time 0 hr sample. Group 2-5 each has 3 samples of equal size, named as Sample A, B and C of Group 2, 3, 4, and 5. Samples A of Group 2-5 are not subjected to any further treatment, but are incubated at 37° C. Samples B of Group 2-5 are treated with 30 ng/ml FGF-1 at 37° C. […] All samples of Group 2 are lysed after 1 hr of treatment, and the lysates are kept at −20° C. until the time of western blot analysis. This group is designated as the Time 1 hr samples. All samples of Group 3 are lysed after 4 hr of treatment, and the lysates are kept at −20° C. until the time of western blot analysis. This group is designated as the Time 4 hr samples. All samples of Group 4 are lysed after 8 hr of treatment, and the lysates are kept at −20° C. until the time of western blot analysis. This group is designated as Time 8 hr samples. All samples of Group 5 are lysed after 24 hr of treatment, and the lysates are kept at −20° C. until the time of western blot analysis. This group is designated as Time 24 hr samples. When all lysates are ready, they are subjected to SDS-PAGE followed by Western Blot experiment. The FGFR-3 signals of Group 1 and all samples of Group 2 are similar. […] In Group 5, the FGFR-3 signal of Sample A is lower than that of group 1; yet signals of Samples B and C are nearly absent.
(In general: In western blotting, separated proteins are transferred to a membrane and probed.)

The next test has as its system RT112 cells. The experiment in a line: RT112 cell proliferation assay (3H-thymidine incorporation). The conditions noted are these: 1 nM exogenous FGF-1, 48 hours. It is filed as cell-based, human. As for the experimental part: Quiesce monolayer RT112 cells in low serum culture media (0.1% fetal bovine serum, 5 μg/mL heparin) for 24-72 hrs. Divide cells into 4 samples. Add FBS (Fetal Bovine Serum) to Sample 1 to the final concentration of 10% (V:V). Leave Sample 2 in the starving media. Add FGF-1 to Sample 3 to the final concentration of 1 nM. […] Next, add FGF-1 to the final concentration of 1 nM. After preparing Samples 1-4 as described above, incubate the samples in a tissue culture incubator set at 37° C. and with 5% CO2 (v:v) for 48 hours. Detect cell growth using standard ^3H-thymidine incorporation, assays. Tumor cell growth is doubled when RT112 cells […] are stimulated with 1 nM exogenous FGF-1.
On the technique in general: Dividing cells build labelled thymidine or BrdU into new DNA.

T1 sequence (P22607 23-806 K650E): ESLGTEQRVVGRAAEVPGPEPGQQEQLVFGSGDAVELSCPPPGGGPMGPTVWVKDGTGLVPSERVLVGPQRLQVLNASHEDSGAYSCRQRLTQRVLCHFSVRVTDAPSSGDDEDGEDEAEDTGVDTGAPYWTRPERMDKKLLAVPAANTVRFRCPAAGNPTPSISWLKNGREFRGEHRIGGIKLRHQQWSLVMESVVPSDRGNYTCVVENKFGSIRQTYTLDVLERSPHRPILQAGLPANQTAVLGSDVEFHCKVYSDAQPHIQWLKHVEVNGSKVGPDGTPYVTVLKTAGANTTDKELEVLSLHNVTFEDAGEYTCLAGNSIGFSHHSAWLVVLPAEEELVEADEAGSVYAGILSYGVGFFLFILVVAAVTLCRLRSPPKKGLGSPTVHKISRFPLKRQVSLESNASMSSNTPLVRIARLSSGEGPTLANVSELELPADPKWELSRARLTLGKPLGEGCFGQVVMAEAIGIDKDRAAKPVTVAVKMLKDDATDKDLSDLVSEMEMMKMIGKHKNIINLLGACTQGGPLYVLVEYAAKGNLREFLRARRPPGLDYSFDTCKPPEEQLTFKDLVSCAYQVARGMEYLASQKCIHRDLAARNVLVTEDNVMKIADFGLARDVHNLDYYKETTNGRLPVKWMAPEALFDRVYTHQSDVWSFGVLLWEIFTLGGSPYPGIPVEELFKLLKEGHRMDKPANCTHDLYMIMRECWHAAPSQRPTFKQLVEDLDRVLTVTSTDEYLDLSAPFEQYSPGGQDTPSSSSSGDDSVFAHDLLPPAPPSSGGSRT
Experimental for BFTC-905 tumor: (§1) The therapeutic benefit of combining cisplatin with FGFR-3 antibody in three bladder xenograft models is explored. Develop RT112, RT4 and BFTC905 xenograft tumor models by routine methods in which 1-20 million tumor cells mixed with 0-100% Matrigel are injected subcutaneously to each female athymic nude mouse. Start antibody treatment once the mean volume of the subcutaneous tumors is approximately 400 mm^2. […] Measure tumor volumes 3 times weekly until the end of the studies.
Conduct RM ANOVO statistical test.
Experimental for RT-112 tumor: as §1
Conduct RM ANOVO statistical test.
Experimental for RT4 tumor: as §1
Conduct RM ANOVO statistical test.

Turning to `N.N.[Cl][Pt][Cl]` [Cisplatin, cisplatin, reference compound], the “RT4 Tumor Volumes, Average” value in the test with RT4 tumor (Day 1) is listed as 195.4 mm^3; in the test with RT4 tumor (Day 8) it was 253.4 mm^3; in the test with RT4 tumor (Day 15), 374.0 mm^3; in the test on RT4 tumor (Day 22), 511.9 mm^3; with RT4 tumor (Day 29), 675.8 mm^3; in the test on RT4 tumor (Day 36), 840.5 mm^3. The “RT4 Tumor Volumes, Average” value with RT4 tumor (Day 42) was 1024.5 mm^3. Further, the “RT-112 Tumor Volumes, Average” value in the test with RT-112 tumor (Day 1) is listed as 175.7 mm^3; with RT-112 tumor (Day 8), 245.1 mm^3; in the test on RT-112 tumor (Day 15), 360.8 mm^3; with RT-112 tumor (Day 22), 578.8 mm^3; with RT-112 tumor (Day 29) it was 739.4 mm^3; in the test with RT-112 tumor (Day 36) it was 881.6 mm^3. Also, the “RT-112 Tumor Volumes, Average” value with RT-112 tumor (Day 42) is 1115.9 mm^3. Besides, the “BFTC-905 Tumor Volumes, Average” value in the test with BFTC-905 tumor (Day 0) is recorded as 192.1 mm^3; in the test on BFTC-905 tumor (Day 3) it was 211.4 mm^3; in the test on BFTC-905 tumor (Day 7), 243.4 mm^3; in the test on BFTC-905 tumor (Day 14) it was 286.7 mm^3; with BFTC-905 tumor (Day 21) it was 395.0 mm^3; with BFTC-905 tumor (Day 28), 511.6 mm^3. Further, the “BFTC-905 Tumor Volumes, Average” value was found to be 615.5 mm^3 with BFTC-905 tumor (Day 35) and 829.6 mm^3 in the test with BFTC-905 tumor (Day 42).
Turning to “FGF-1: recombinant human FGF ligand, known to induce FGFR degradation”, the “FGFR-3 signal compared with Time 0 hr (Group 1)” value in test [1] (Time 1 hr) is “similar”; in test [1] (Time 4 hr), “significantly lower”; in test [1] (Time 8 hr), “significantly lower”; in test [1] (Time 24 hr), “nearly absent”. In addition, the “tumor cell growth on stimulation” value with RT112 cells was “doubled”.
